The source of these data is US9975906B2, “Tricyclic heterocycle derivatives having HIV replication inhibitory effect” (Shionogi & Co., Ltd., priority 2014, dated 2018).

One data set has as its system HIV (HTLV-IIIB strain). Description: HIV Replication Inhibition Assay. The following applies: Human immunodeficiency virus 1, MT4, 96 h, MT-4 cells, cultured four days, MTT, concentration at which cell cytotoxicity by virus is inhibited 50%. It is filed as cell-based. Here is the method: HIV (HTLV-IIIB strain) persistent infected human T cell strain Molt-4 clone 8 was cultured in 10% Fetal Bovine Serum-containing RPMI-1640 medium and the supernatant was filtered, then the virus titer was measured and the solution was stored at −80° C. Each anti-human immunodeficiency virus active substance was diluted with the above cultured medium to the designated concentration, which was dispensed into 96 well micro plate by 50 μL. Next, a MT-4 cell suspended liquid was dispensed by 100 μL (2.5×10^4 cells), then the above HIV-containing supernatant diluted with the above cultured medium was added thereto by 50 μl (60 pfu (plaque forming unit)).
The obtained mixture was cultured at 37° C. in CO2 incubator for four days, then 3-(4,5-dimethylthiazole-2-yl)-2,5-diphenyltetrazolynium bromide (MTT) 5 mg/mL in PBS was added to each well by 30 μL, followed by 1 hr-cultivation. In this step, as formazan was precipitated by reduction of MTT in living cells, the cell supernatant was removed from all was by 150 μL, then a 150 μL of solution (10% Triton X-100 and 0.4% (v/v)-HCl containing isopropanol) was added thereto, followed by shaking with a plate mixer, to elute formazan. The formazan was measured with a microreader at OD: 560 nm and 690 nm (reference wavelength) and the result was compared with the reference. EC50 means the compound concentration at which cell cytotoxicity by virus is inhibited 50%.

For another data set, the target named is T1, CYP2C9 (Homo sapiens, UniProt P11712).
T1 construct: enzyme, pooled human hepatic microsome 0.2 mg protein/mL; from tissue
T1 sequence (P11712 whole entry): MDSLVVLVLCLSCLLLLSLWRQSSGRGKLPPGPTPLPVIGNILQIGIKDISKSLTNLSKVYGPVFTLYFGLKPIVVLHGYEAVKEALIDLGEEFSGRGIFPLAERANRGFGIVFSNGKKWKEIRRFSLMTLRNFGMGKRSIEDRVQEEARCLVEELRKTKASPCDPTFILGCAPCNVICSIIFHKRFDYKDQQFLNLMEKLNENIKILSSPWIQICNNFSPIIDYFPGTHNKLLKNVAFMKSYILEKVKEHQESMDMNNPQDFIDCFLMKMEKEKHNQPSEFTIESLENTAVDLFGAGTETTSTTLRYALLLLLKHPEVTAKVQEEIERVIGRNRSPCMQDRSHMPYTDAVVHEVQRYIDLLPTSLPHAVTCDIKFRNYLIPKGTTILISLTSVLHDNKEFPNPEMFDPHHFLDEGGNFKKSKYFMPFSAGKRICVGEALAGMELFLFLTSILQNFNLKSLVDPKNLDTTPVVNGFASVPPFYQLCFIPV
The data set can be described thus: CYP Inhibition Assay (tolbutamide methyl-hydroxylation). It is filed as in vitro ADME. The following applies: pooled human hepatic microsome, 100 μmol/L tolbutamide, 15 minutes, 37° C. As to the method: (§1) Using commercially available pooled human hepatic microsome, and employing, as markers, 7-ethoxyresorufin O-deethylation (CYP1A2), tolbutamide methyl-hydroxylation (CYP2C9), mephenytoin 4'-hydroxylation (CYP2C19), dextromethorphan O-demethylation (CYP2D6), and terfenadine hydroxylation (CYP3A4) as typical substrate metabolism reactions of human main five CYP enzyme forms (CYP1A2, 2C9, 2C19, 2D6, 3A4) an inhibitory degree of each metabolite production amount by a test compound was assessed. […] After the centrifugation at 3000 rpm for 15 minutes, resorufin (CYP1A2 metabolite) in the supernatant was quantified by a fluorescent multilabel counter and tolbutamide hydroxide (CYP2C9 metabolite), mephenytoin 4' hydroxide (CYP2C19 metabolite), dextrorphan (CYP2D6 metabolite), and terfenadine alcohol (CYP3A4 metabolite) were quantified by LC/MS/MS. A reaction system containing only DMSO which is a solvent for dissolving a drug was adopted as a control (100%), and the remaining activity (%) was calculated, then IC50 was calculated by reverse presumption with a logistic model using a concentration and an inhibition rate.

For a further data set, the target named is T2, CYP2C19 (Homo sapiens, UniProt P33261).
T2 construct: enzyme, pooled human hepatic microsome 0.2 mg protein/mL; from tissue
T2 sequence (P33261 whole entry): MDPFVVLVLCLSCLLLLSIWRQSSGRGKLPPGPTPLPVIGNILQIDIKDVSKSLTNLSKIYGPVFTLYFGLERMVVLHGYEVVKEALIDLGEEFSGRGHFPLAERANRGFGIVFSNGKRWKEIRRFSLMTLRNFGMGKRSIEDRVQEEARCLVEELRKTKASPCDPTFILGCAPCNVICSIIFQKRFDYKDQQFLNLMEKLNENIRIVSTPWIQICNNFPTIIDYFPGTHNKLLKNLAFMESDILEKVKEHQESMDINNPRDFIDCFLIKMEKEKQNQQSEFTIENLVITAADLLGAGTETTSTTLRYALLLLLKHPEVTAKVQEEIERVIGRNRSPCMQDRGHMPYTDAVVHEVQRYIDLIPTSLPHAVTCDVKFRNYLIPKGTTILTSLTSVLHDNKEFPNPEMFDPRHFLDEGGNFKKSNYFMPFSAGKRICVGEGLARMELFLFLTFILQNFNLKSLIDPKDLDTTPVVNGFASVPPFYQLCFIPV
The data set can be described thus: CYP Inhibition Assay (mephenytoin 4'-hydroxylation). It is filed as in vitro ADME. The settings on record: pooled human hepatic microsome, 50 μmol/L S-mephenytoin, 15 minutes, 37° C. As to the method: as §1

The next data set addresses T3, CYP2D6 (Homo sapiens, UniProt P10635).
T3 construct: enzyme, pooled human hepatic microsome 0.2 mg protein/mL; from tissue
Description: CYP Inhibition Assay (dextromethorphan O-demethylation). It is filed as in vitro ADME. The following applies: pooled human hepatic microsome, 5 μmol/L dextromethorphan, 15 minutes, 37° C. Here is the method:
as §1

In another data set the target is T4, CYP3A4 (Homo sapiens, UniProt P08684).
T4 construct: enzyme, pooled human hepatic microsome 0.2 mg protein/mL; from tissue
T4 sequence (P08684 whole entry): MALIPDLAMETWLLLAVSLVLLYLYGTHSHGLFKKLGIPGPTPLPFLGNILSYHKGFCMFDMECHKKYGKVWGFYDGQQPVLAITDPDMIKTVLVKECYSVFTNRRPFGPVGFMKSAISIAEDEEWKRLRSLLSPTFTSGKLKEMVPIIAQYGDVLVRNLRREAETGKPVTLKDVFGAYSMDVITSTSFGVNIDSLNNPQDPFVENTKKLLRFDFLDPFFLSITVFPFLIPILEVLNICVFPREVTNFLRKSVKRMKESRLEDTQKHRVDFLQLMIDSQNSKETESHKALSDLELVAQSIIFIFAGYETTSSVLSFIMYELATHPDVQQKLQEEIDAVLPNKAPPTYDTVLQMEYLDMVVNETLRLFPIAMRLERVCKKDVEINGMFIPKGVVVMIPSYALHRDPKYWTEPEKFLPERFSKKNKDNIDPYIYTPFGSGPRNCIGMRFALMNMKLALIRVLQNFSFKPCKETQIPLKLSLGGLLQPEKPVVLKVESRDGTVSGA
The data set can be described thus: CYP Inhibition Assay (terfenadine hydroxylation). It is filed as in vitro ADME. The following applies: pooled human hepatic microsome, 1 μmol/L terfenedine, 15 minutes, 37° C. Here is the method: as §1

Data set [1] in a line: Metabolism Stability Test. It is filed as in vitro ADME. The following applies: compound concentration 0.5 μmol/L, human liver microsomes, NADPH, 37° C., 30 minutes. Here is the method:
Commercially available pooled human hepatic microsomes and a test compound were reacted for a constant time, then a remaining rate was calculated by comparing a reacted sample and an unreacted sample, thereby a degree of metabolism of the test compound in liver was assessed. A reaction was performed (oxidative reaction) at 37° C. for 0 minute or 30 minutes in the presence of 1 mmol/L NADPH in 0.2 mL of a buffer (50 mmol/L Tris-HCl, pH 7.4, 150 mmol/L potassium chloride, 10 mmol/L magnesium chloride) containing 0.5 mg protein/mL of human liver microsomes. After the reaction, 50 μL of the reaction solution was added to 100 μL of a methanol/acetonitrile=1/1 (v/v), mixed and centrifuged at 3000 rpm for 15 minutes. The test compound in the supernatant was quantified by LC/MS/MS, and a remaining amount of the test compound after the reaction wad calculated, letting a compound amount at 0 minute reaction time to be 100%. Hydrolysis reaction was performed in the absence of NADPH and glucuronidation reaction was in the presence of 5 mM UDP-glucuronic acid in place of NADPH, followed by similar operations. (Result) The residual rate of the compound concentration 0.5 μmol/L in the oxidation reaction was shown below.

T3 sequence (P10635 whole entry): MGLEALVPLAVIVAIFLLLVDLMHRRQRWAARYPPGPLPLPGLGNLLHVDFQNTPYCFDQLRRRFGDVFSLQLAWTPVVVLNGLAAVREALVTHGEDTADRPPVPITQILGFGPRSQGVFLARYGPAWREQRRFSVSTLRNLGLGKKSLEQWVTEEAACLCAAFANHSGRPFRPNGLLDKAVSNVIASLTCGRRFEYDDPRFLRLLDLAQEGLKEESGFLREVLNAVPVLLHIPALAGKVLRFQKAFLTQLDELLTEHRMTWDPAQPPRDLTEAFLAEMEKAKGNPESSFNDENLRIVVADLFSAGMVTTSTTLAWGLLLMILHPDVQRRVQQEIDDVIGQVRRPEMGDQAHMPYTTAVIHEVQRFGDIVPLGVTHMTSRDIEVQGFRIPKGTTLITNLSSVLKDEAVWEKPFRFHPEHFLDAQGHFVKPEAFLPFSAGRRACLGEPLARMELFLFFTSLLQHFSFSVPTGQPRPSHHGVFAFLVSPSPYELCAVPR

`Cc1ccc(-c2c([C@H](OC(C)(C)C)C(=O)O)c(C)c3c4c2cc(-c2ccnc(-c5ccc6c(cnn6C)c5)c2)n4CCN3CCN(C)C)cc1` [Compound I-034] displayed a half-maximal effective concentration (EC50) with HIV (HTLV-IIIB strain) of 0.0024 µM. The IC50 against CYP2C9, at CYP2C19, on CYP2D6 and against CYP3A4 was more than 20 µM in each case. Also, the “residual rate in the oxidation reaction” value in data set [1] is given as more than 99.9%.
